The results in this text go back to patent US9067881B2, “4-tolyl-ethynyl-octahydro-indole-1-ester derivatives” (NOVARTIS AG, priority 2011, dated 2015).

In brackets after ≈: the same amount, converted by molar mass. Some results are limits rather than exact numbers.

What is called microsomal CLint is a measure of how fast metabolising enzymes remove a compound, apart from limits set by blood flow. Read a high microsomal CLint as rapid turnover. What is called solubility is how much of the substance goes into solution per volume.

A short description of data set [1]: In-vitro clearance in rat liver microsomes (metabolic stability, compound depletion). In general terms: Liver microsomes are a subcellular fraction often used to study metabolism.
Data set [2] is described as follows: In-vitro clearance in human liver microsomes (metabolic stability, compound depletion).
Data set [3] is described as follows: Solubility in Cl free phosphate buffer pH 6.8. It is filed as physicochemical. The settings on record: aqueous buffer; Cl free phosphate buffer (0.067 M) pH 6.8.

`CNCC(=O)O[C@@]1(C#Cc2cccc(C)c2)CCC[C@@H]2[C@H]1CCN2C(=O)OC` [Example 7, (3aR,4S,7aR)-4-(2-Methylamino-acetoxy)-4-m-tolylethynyl-octahydro-indole-1-carboxylic acid methyl ester]: the intrinsic metabolic clearance (microsomal CLint) at 1 μM was determined as 346 µL/min/mg in data set [1] and 433 µL/min/mg in data set [2].

For `COC(=O)N1CC[C@@H]2[C@H]1CCC[C@]2(C#Cc1cccc(C)c1)OC(=O)[C@@H](N)c1ccccc1` [Example 41, (3aR,4S,7aR)-methyl 4-((S)-2-amino-2-phenylacetoxy)-4-(m-tolylethynyl)octahydro-1H-indole-1-carboxylate], in data set [3], the solubility stood at 3 µg/mL (≈ 6.72 µM). Besides, the intrinsic metabolic clearance (microsomal CLint) at 1 μM in data set [1] worked out at 579 µL/min/mg; in data set [2], 693 µL/min/mg.

In turn, `CCCN(CCC)C(=O)CCC(=O)O[C@@]1(C#Cc2cccc(C)c2)CCC[C@@H]2[C@H]1CCN2C(=O)OC` [Example 63, (3aR,4S,7aR)-methyl 4-(4-(dipropylamino)-4-oxobutanoyloxy)-4-(m-tolylethynyl)octahydro-1H-indole-1-carboxylate] gave a solubility in data set [3] of 43 µg/mL (≈ 86.6 µM). Moreover, in data set [1], the intrinsic metabolic clearance (microsomal CLint) at 1 μM is 26 µL/min/mg.

Turning to `COC(=O)N1CC[C@@H]2[C@H]1CCC[C@]2(C#Cc1cccc(C)c1)OC(=O)c1ccncc1` [Example 45, (3aR,4S,7aR)-methyl 4-(isonicotinoyloxy)-4-(m-tolylethynyl)octahydro-1H-indole-1-carboxylate], in data set [3], the solubility is below 2 µg/mL. This compound also registered an intrinsic metabolic clearance (microsomal CLint) at 1 μM in data set [1] of 385 µL/min/mg.

Regarding `COC(=O)N1CC[C@@H]2[C@H]1CCC[C@]2(C#Cc1cccc(C)c1)OC(=O)c1ccccn1` [Example 54, (3aR,4S,7aR)-4-(Pyridine-2-carbonyloxy)-4-m-tolylethynyl-octahydro-indole-1-carboxylic acid methyl ester], the solubility in data set [3] is 2 µg/mL (≈ 4.78 µM). This compound also registered a microsomal CLint at 1 μM in data set [1] of 167 µL/min/mg.

Take `COC(=O)N1CC[C@@H]2[C@H]1CCC[C@]2(C#Cc1cccc(C)c1)OC(=O)CN(C)C` [Example 1, (3aR,4S,7aR)-4-(2-Dimethylamino-acetoxy)-4-m-tolylethynyl-octahydro-indole-1-carboxylic acid methyl ester]: the microsomal CLint at 1 μM in data set [1] is 195 µL/min/mg; in data set [2], 14 µL/min/mg.

Regarding `CCCCCCCCCCCC(=O)O[C@@]1(C#Cc2cccc(C)c2)CCC[C@@H]2[C@H]1CCN2C(=O)OC` [Example 19, (3aR,4S,7aR)-4-Dodecanoyloxy-4-m-tolylethynyl-octahydro-indole-1-carboxylic acid methyl ester], the solubility in data set [3] was below 2 µg/mL. The compound further returned a microsomal CLint at 1 μM in data set [1] of 32 µL/min/mg.

For `CCCCCCCCCCCCC(=O)O[C@@]1(C#Cc2cccc(C)c2)CCC[C@@H]2[C@H]1CCN2C(=O)OC` [Example 25, (3aR,4S,7aR)-4-m-Tolylethynyl-4-tridecanoyloxy-octahydro-indole-1-carboxylic acid methyl ester], the solubility in data set [3] is below 2 µg/mL. The microsomal CLint at 1 μM in data set [1] is 32 µL/min/mg.

Turning to `CN[C@@H](C)C(=O)O[C@@]1(C#Cc2cccc(C)c2)CCC[C@@H]2[C@H]1CCN2C(=O)OC` [Example 35, (3aR,4S,7aR)-4-((S)-2-Methylamino-propionyloxy)-4-m-tolylethynyl-octahydro-indole-1-carboxylic acid methyl ester], the microsomal CLint at 1 μM in data set [1] was 50 µL/min/mg.

Regarding `CCC(=O)O[C@@]1(C#Cc2cccc(C)c2)CCC[C@@H]2[C@H]1CCN2C(=O)OC` [Example 14, (3aR,4S,7aR)-4-Propionyloxy-4-m-tolylethynyl-octahydro-indole-1-carboxylic acid methyl ester], the solubility in data set [3] is 9 µg/mL (≈ 24.4 µM). The compound also registered a microsomal CLint at 1 μM in data set [1] of 3.4 µL/min/mg.

Turning to `CCCCCCC(=O)O[C@@]1(C#Cc2cccc(C)c2)CCC[C@@H]2[C@H]1CCN2C(=O)OC` [Example 23, (3aR,4S,7aR)-4-Heptanoyloxy-4-m-tolylethynyl-octahydro-indole-1-carboxylic acid methyl ester], the solubility in data set [3] is below 2 µg/mL. For the same compound, the intrinsic clearance (microsomal CLint) at 1 μM in data set [1] turned out to be 3.4 µL/min/mg.

Consider `CCC[C@H](N)C(=O)O[C@@]1(C#Cc2cccc(C)c2)CCC[C@@H]2[C@H]1CCN2C(=O)OC` [Example 32, (3aR,4S,7aR)-4-((S)-2-Amino-pentanoyloxy)-4-m-tolylethynyl-octahydro-indole-1-carboxylic acid methyl ester], for which the intrinsic clearance (microsomal CLint) at 1 μM in data set [1] was 420 µL/min/mg.

With `CCCCCCCCCC(=O)O[C@@]1(C#Cc2cccc(C)c2)CCC[C@@H]2[C@H]1CCN2C(=O)OC` [Example 20, (3aR,4S,7aR)-4-Decanoyloxy-4-m-tolylethynyl-octahydro-indole-1-carboxylic acid methyl ester], the solubility in data set [3] was below 2 µg/mL. In data set [1], this compound showed a microsomal CLint at 1 μM of 5.4 µL/min/mg.

`CN[C@H](C(=O)O[C@@]1(C#Cc2cccc(C)c2)CCC[C@@H]2[C@H]1CCN2C(=O)OC)C(C)C` [Example 36, (3aR,4S,7aR)-4-((S)-3-Methyl-2-methylamino-butyryloxy)-4-m-tolylethynyl-octahydro-indole-1-carboxylic acid methyl ester] came in with a microsomal CLint at 1 μM in data set [1] of 815 µL/min/mg.

For the compound `COC(=O)N1CC[C@@H]2[C@H]1CCC[C@]2(C#Cc1cccc(C)c1)OC(=O)[C@H](C)N` [Example 9, (3aR,4S,7aR)-4-((S)-2-Amino-propionyloxy)-4-m-tolylethynyl-octahydro-indole-1-carboxylic acid methyl ester], the microsomal CLint at 1 μM in data set [1] stood at 355 µL/min/mg; in data set [2] it was 315 µL/min/mg.

With `COC(=O)N1CC[C@@H]2[C@H]1CCC[C@]2(C#Cc1cccc(C)c1)OC(=O)CCN` [Example 40, (3aR,4S,7aR)-methyl 4-(3-aminopropanoyloxy)-4-(m-tolylethynyl)octahydro-1H-indole-1-carboxylate], the microsomal CLint at 1 μM in data set [1] was 302 µL/min/mg; in data set [2] it was 36 µL/min/mg.

`COC(=O)N1CC[C@@H]2[C@H]1CCC[C@]2(C#Cc1cccc(C)c1)OC(=O)CCCN(C)C` [Example 3, (3aR,4S,7aR)-4-(4-Dimethylamino-butyryloxy)-4-m-tolylethynyl-octahydro-indole-1-carboxylic acid methyl ester]: the microsomal CLint at 1 μM in data set [1] turned out to be 730 µL/min/mg; in data set [2], 283 µL/min/mg.

For the compound `COC(=O)N1CC[C@@H]2[C@H]1CCC[C@]2(C#Cc1cccc(C)c1)OC(=O)[C@@H](N)Cc1ccccc1` [Example 31, (3aR,4S,7aR)-4-((S)-2-Amino-3-phenyl-propionyloxy)-4-m-tolylethynyl-octahydro-indole-1-carboxylic acid methyl ester], the intrinsic clearance (microsomal CLint) at 1 μM in data set [1] amounted to 262 µL/min/mg.

In turn, `CCCCCCCCC(=O)O[C@@]1(C#Cc2cccc(C)c2)CCC[C@@H]2[C@H]1CCN2C(=O)OC` [Example 24, (3aR,4S,7aR)-4-Nonanoyloxy-4-m-tolylethynyl-octahydro-indole-1-carboxylic acid methyl ester] displayed a solubility in data set [3] below 2 µg/mL. The same compound gave an intrinsic metabolic clearance (microsomal CLint) at 1 μM in data set [1] of 32 µL/min/mg.

In data set [3], `COC(=O)N1CC[C@@H]2[C@H]1CCC[C@]2(C#Cc1cccc(C)c1)OC(=O)c1cccnc1` [Example 51, (3aR,4S,7aR)-methyl 4-(nicotinoyloxy)-4-(m-tolylethynyl)octahydro-1H-indole-1-carboxylate] had a solubility below 2 µg/mL. Further, the intrinsic metabolic clearance (microsomal CLint) at 1 μM in data set [1] is 478 µL/min/mg.
